The source of these data is patent US7781453B2, “Aminopyridine-derivatives” (Altana Pharma AG, priority 2003, dated 2010).

As usually defined, the melting point is the temperature of the solid-liquid transition. With `Cc1cc(N)nc(CCc2nc3cc(-c4ccc(Cl)cc4)cnc3[nH]2)c1.Cl`, the melting point fell in the range of 228 to 230 °C.

In turn, `Cc1cc(N)nc(CCc2nc3cccnc3[nH]2)c1` [compound 1, 2-[2-(2-Amino-4-methylpyridin-6-yl)ethyl]-3H-imidazo[4,5-b]pyridine] came in with a melting point of 45 to 47 °C.

In turn, `Cc1ccc(-c2cnc3[nH]c(CCc4cc(C)cc(N)n4)nc3c2)cc1.Cl` came in with a melting point of 186 °C.

Consider `Cc1cc(N)nc(CCc2nc3cc(-c4ccc(C#N)cc4)cnc3[nH]2)c1` [compound 6, 2-[2-(2-Amino-4-methylpyridin-6-yl)ethyl]-6-(4-cyano-phenyl)-3H-imidazo[4,5-b]pyridine], for which the melting point was 218 °C.

For `Cc1cc(N)nc(CCc2nc3cc(-c4cccc(OCc5ccccc5)c4)cnc3[nH]2)c1` [compound 13, 6-{2-[6-(3-Benzyloxy-phenyl)-3H-imidazo[4,5-b]pyridin-2-yl]-ethyl}-4-methyl-pyridin-2-ylamine], the melting point was determined as 181 °C.

`Cc1cc(N)nc(CCc2nc3cc(-c4ccccc4)cnc3[nH]2)c1` [compound 5, 2-[2-(2-Amino-4-methylpyridin-6-yl)ethyl]-6-phenyl-3H-imidazo[4,5-b]pyridine] yielded a melting point of 230 °C.

Regarding `Cc1cc(N)nc(CC(C)c2nc3cccnc3[nH]2)c1` (racemic) [compound 2, (R,S)-2-[3-(2-Amino-4-methylpyridin-6-yl)prop-2-yl]-3H-imidazo[4,5-b]pyridine], the melting point was found to be 48 °C.

In the case of `Cc1cc(N)nc(CCc2nc3cc(-c4ccc(S(=O)(=O)N5CCC5)cc4)cnc3[nH]2)c1` [compound 17, 6-(2-{6-[4-(Azetidine-1-sulfonyl)-phenyl]-3H-imidazo[4,5-b]pyridin-2-yl}-ethyl)-4-methyl-pyridin-2-ylamine], the melting point amounted to 168 °C.

`Cc1cc(N)nc(CCc2nc3cccnc3[nH]2)c1.Cl`: the melting point came to 136 °C.

With `Cc1cc(N)nc(CCc2nc3cc(-c4cccc(O)c4)cnc3[nH]2)c1` [compound 16, 3-{2-[2-(6-Amino-4-methyl-pyridin-2-yl)-ethyl]-3H-imidazo[4,5-b]pyridin-6-yl}-phenol], the melting point was 162 °C.

As for `Cc1cc(N)nc(CCc2nc3cc(-c4ccc(S(=O)(=O)N5CCN(C)CC5)cc4)cnc3[nH]2)c1` [compound 21, 4-Methyl-6-(2-{6-[4-(4-methyl-piperazine-1-sulfonyl)-phenyl]-3H-imidazo[4,5-b]pyridin-2-yl}-ethyl)-pyridin-2-ylamine], the melting point amounted to 135 °C.

The molecule `Cc1cc(N)nc(CCc2nc3cc(-c4ccc(S(=O)(=O)N5CCCCC5)cc4)cnc3[nH]2)c1` [compound 19, 4-Methyl-6-(2-{6-[4-(piperidine-1-sulfonyl)-phenyl]-3H-imidazo[4,5-b]pyridin-2-yl}-ethyl)-pyridin-2-ylamine] registered a melting point of 233 °C.

Turning to `Cc1cc(N)nc(CCc2nc3cc(-c4cc(Cl)cc(Cl)c4)cnc3[nH]2)c1` [compound 14, 6-{2-[6-(3,5-Dichloro-phenyl)-3H-imidazo[4,5-b]pyridin-2-yl]-ethyl}-4-methyl-pyridin-2-ylamine], the melting point is 224 °C.

`Cc1cc(N)nc(CCc2nc3cc(-c4ccc(S(=O)(=O)N5CCCC5)cc4)cnc3[nH]2)c1` [compound 18, 4-Methyl-6-(2-{6-[4-(pyrrolidine-1-sulfonyl)-phenyl]-3H-imidazo[4,5-b]pyridin-2-yl}-ethyl)-pyridin-2-ylamine] registered a melting point of 171 °C.

Molecule `CC(=O)O.Cc1cc(N)nc(CCc2nc3cccnc3[nH]2)c1` showed a melting point of 54 °C.

`Cc1cc(N)nc(CCc2nc3cc(Br)cnc3[nH]2)c1` [compound 4, 2-[2-(2-Amino-4-methylpyridin-6-yl)ethyl]-6-bromo-3H-imidazo[4,5-b]pyridine]: the melting point worked out at 216 °C.

In turn, `Cc1cc(N)nc(CCc2nc3cc(-c4ccc(OCc5ccccc5)cc4)cnc3[nH]2)c1` [compound 15, 6-{2-[6-(4-Benzyloxy-phenyl)-3H-imidazo[4,5-b]pyridin-2-yl]-ethyl}-4-methyl-pyridin-2-ylamine] showed a melting point of 225 °C.
